Legend:
[1] = tested on: punished responding; experiment: Vogel conflict paradigm (lick suppression); type: in vivo, mice (male N.I.H. Swiss-Webster); details: 3α-OH-DHP 20 mg/kg
From the text: An Anxio-Monitor (Omnitech Electronics, Columbus, Ohio) was used for measuring lick suppression. The testing chamber consisted of a clear plexiglass box (29 cm×29 cm×23 cm) with a metal drinking tube located 2.5 cm from the floor and extending 2 cm into the box. The shock was applied through the drinking spout and was controlled by the Anxio-Monitor. […] The reinforcer was 0.1M sucrose.
The conflict test procedure described by Vogel et al. (1980) was employed. This procedure is a modification of the original lick suppression test first described by Vogel et al. (1971). After 24 hr. of water deprivation,mice were allowed to explore the test apparatus and drink without punishment for 10 min. or 100 licks. […] Mice were allowed unpunished access to the drinking tube for 20 licks, thereafter, every 10th lick was punished with 0.1 mA shock. The test duration was 5 min.
The vehicle control data were analyzed across test days using an 1-way analysis of variance (ANOVA). […] The dose-response curves were then analyzed using an 1-way ANOVA, followed by Dunnett's t-test for individual comparisons between doses and control. The open-field and habituated locomotor data were analyzed using ANOVA followed by Dunnett's t-test. […] All data is expressed as the mean±S.E.M.

[2] = dissolved in DMSO; Belelli et al., 1989; cited from earlier work
[3] = biological target: T1, estrogen receptor (Bos taurus, UniProt P49884); experiment: Inhibition of 3H-estradiol binding to bovine uteral estrogen receptors; details: read-out: % of inhibition of 3H-estradiol binding, B, competitor 10^-6 M; 0.25 nM 3H-estradiol
T1 construct: from tissue; host or cells: bovine uterus cytosol
T1 sequence (P49884 1-596): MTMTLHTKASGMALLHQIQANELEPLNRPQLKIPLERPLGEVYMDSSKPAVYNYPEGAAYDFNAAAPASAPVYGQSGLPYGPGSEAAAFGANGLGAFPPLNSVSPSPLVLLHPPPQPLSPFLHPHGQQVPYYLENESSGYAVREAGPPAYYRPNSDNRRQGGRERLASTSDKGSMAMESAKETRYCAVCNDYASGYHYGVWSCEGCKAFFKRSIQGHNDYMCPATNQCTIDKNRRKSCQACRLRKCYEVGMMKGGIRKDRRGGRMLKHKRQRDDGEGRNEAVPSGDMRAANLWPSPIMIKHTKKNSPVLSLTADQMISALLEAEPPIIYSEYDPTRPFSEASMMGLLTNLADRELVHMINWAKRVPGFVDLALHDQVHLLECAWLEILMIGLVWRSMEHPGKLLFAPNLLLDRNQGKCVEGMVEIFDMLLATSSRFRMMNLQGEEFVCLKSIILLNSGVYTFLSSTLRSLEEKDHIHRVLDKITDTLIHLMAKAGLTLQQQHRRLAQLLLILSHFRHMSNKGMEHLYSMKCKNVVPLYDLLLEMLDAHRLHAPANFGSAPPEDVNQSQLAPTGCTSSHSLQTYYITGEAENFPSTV
Description: The hormonal activity of drugs described herein was further studied through testing their potential estrogenic, progestinic, mineralocorticoid and glucocorticoid activities. These activities were analyzed by monitoring the ability of the drugs to inhibit binding of the steroid hormones to their respective hormone receptors.

Row | Compound | increase in number of shocks received vs controls ([1]; 5 min session, p=0.01, FIG. 14) [%] | number of shocks received ([1]; controls […]) | LD50 [2] [mg/kg] | inhibition at 1 µM [3] [%]
1 | CC(=O)[C@H]1CC[C@H]2[C@@H]3CC[C@H]4C[C@H](O)CC[C@]4(C)[C@H]3CC[C@]12C [Example 3α-OH-DHP, 3α-hydroxy-5α-pregnan-20-one] | 235.6 | 13.9±2.1 | > 500 | 
2 | C[C@]12CC[C@@H](O)C[C@@H]1CC[C@@H]1[C@@H]2CC[C@]2(C)[C@@H](C(=O)CO)CC[C@@H]12 [Example 5α-THDOC, 3α,21-dihydroxy-5α-pregnan-20-one] |  |  |  | 4

— patent US5232917A, “Methods, compositions, and compounds for allosteric modulation of the GABA receptor by members of the androstane and pregnane series” (priority 1991, dated 1993)
